Source: patent US8445510B2, “Fused bicyclic kinase inhibitors” (OSI Pharmaceuticals, LLC, priority 2011, dated 2013)

Tests used:
Format in all cases: cell-based
Karpas-299 cells = assay: Karpas-299 cell proliferation assay (CellTiter-Glo); conditions: Homo sapiens, 72 h; Karpas-299 cell line (NPM-ALK); 3 days incubation; at least duplicate experiments; read-out: Prolif. IC50
MKN45 cells = assay: MKN45 cell proliferation assay (CellTiter-Glo); conditions: Homo sapiens, MKN-45, 72 h; MKN45 cell line; 3 days incubation; at least duplicate experiments; read-out: Prolif. IC50
Aurora B = target: T1, Aurora B (Homo sapiens, UniProt Q96GD4); assay: Aurora B cell mechanistic assay (HT-29), phospho-Histone H3 (Ser10) ELISA; conditions: HT-29 cell line; inhibition of phospho-Histone H3 (Ser10); at least duplicate experiments (italicized if single experiment); read-out: Aurora B mech IC50
T1 construct: HT-29 cells grown in complete growth media
T1 sequence (Q96GD4 whole entry): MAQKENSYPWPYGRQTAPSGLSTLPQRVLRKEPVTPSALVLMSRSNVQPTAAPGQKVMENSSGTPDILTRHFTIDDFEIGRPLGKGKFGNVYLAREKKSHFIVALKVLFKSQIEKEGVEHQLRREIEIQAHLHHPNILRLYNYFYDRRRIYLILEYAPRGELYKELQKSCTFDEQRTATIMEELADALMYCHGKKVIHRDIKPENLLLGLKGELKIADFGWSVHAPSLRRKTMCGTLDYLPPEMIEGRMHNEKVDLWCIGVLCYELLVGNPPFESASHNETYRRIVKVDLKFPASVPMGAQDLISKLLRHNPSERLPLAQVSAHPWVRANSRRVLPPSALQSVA
Procedure: The cellular activity of the compounds of the present invention against Aurora B may be determined by the following procedure. HT-29 cells grown in complete growth media (McCoy's 5A, 10% FCS, 1% L-glutamine) were plated into wells of a 96 well tissue culture plate (Falcon 3072) at a cell density of 4×10^4 cells/0.09 ml media/well. Cells were subsequently incubated overnight in a 5% CO2 humidified 37° C. incubator. The following day 10 μl of a 10× stock of test compound serially diluted in media was added to the cells and incubated for 1 h at 37° C. at which time Calyculin A (Cell Signaling #9902) was added at a concentration of 100 nM and cells incubated for an additional 30 minutes in a 5% CO2 humidified 37° C. incubator. Media was then aspirated and cells lysed using a Triton based lysis buffer. Lysates were transferred to a pre-coated anti-Histone H3 antibody coated plate supplied by Cell Signaling in their PathScan phospho-Histone H3 (Ser10) ELISA kit (#7155). After an overnight incubation with lysate the ELISA was continued following the manufacturer's instructions. Signal was measured on a Wallac Victor plate reader at 450 nm. DMSO control treated cells served as 100% signal and an Aurora B kinase inhibitor served as 100% inhibition. The percent inhibition of phospho-Histone H3 (Ser10) was expressed as % control. IC50 values were calculated from the percent control data using a standard four-parameter model.
The IC50 values of exemplary compounds of the present invention determined in a Aurora B cell mechanistic assay using the HT-29 cell line according to the procedures described herein in at least duplicate experiments are abbreviated as follows and are shown in Table 4: A, IC50≦0.05 μM; B, 0.05 μM<IC50≦0.2 μM; C, 0.2 μM<IC50≦1 μM; D, IC50>1 μM; ND, not determined. If only data from single experiments are available, the abbreviations are italicized. The Example # of Table 4 corresponds to the compound example number as illustrated in the Examples section.

RON = target: T2, RON (Homo sapiens, UniProt Q04912); assay: sfRON cell mechanistic assay (HeLa), phosphorylated RON ELISA; conditions: HeLa cells transfected with sfRON; inhibition of phosphorylated RON; four hours incubation; at least duplicate experiments; read-out: sfRON mech IC50
T2 sequence (Q04912 913-1400): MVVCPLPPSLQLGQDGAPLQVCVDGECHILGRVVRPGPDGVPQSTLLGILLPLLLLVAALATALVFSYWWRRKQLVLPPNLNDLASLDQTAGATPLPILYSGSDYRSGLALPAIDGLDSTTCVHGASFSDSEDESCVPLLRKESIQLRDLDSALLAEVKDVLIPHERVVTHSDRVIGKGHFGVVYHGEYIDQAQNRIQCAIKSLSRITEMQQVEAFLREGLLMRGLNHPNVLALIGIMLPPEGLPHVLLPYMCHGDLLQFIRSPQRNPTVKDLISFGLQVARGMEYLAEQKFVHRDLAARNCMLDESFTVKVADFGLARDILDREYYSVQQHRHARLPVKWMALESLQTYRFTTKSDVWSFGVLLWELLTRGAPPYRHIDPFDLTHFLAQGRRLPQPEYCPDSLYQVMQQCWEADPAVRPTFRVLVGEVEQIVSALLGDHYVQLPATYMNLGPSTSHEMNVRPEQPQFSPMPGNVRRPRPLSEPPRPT
Outline: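 HeLa cells transiently transfected with sfRON plasmid, then exposed 4 h at 37 °C to a 6-point compound series (typically 10 μM to 3 nM, 0.5% DMSO). Phospho-RON (pY1238/1239) in lysates measured by sandwich ELISA with luminescence. IC50 from 4-parameter fit of percent-of-DMSO-control data, at least duplicate runs.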

Row | IC50 (Karpas-299 cells) | IC50 (MKN45 cells) | IC50 (Aurora B) | IC50 (RON) | Compound
1 | ≤ 50 nM | ≤ 50 nM | > 1000 nM |  | CCOc1ccc(F)c(Cl)c1[C@@H](C)c1c[nH]c2ncc(-c3c(C)nn(C[C@@H](O)CO)c3C)cc12 [Example 101, (2R)-3-(4-{3-[(1S)-1-(2-Chloro-6-ethoxy-3-fluorophenyl)ethyl]-1H-pyrrolo[2,3-b]pyridin-5-yl}-3,5-dimethyl-1H-pyrazol-1-yl)propane-1,2-diol]
2 | 200 to 1000 nM | 200 to 1000 nM | > 1000 nM |  | COc1ccc(F)c(Cl)c1[C@@H](C)c1c[nH]c2ncc(-c3cn(CC(C)(C)O)nc3C(F)(F)F)cc12 [Example 30, 1-[4-{3-[(1S)-1-(2-Chloro-3-fluoro-6-methoxyphenyl)ethyl]-1H-pyrrolo[2,3-b]pyridin-5-yl}-3-(trifluoromethyl)-1H-pyrazol-1-yl]-2-methylpropan-2-ol]
3 | ≤ 50 nM | ≤ 50 nM | 200 to 1000 nM |  | COc1ccc(F)c(Cl)c1[C@@H](C)c1c[nH]c2ncc(-c3cn(C[C@H](O)CO)nc3C)cc12 [Example 9, (2S)-3-(4-{3-[(1S)-1-(2-Chloro-3-fluoro-6-methoxyphenyl)ethyl]-1H-pyrrolo[2,3-b]pyridin-5-yl}-3-methyl-1H-pyrazol-1-yl)propane-1,2-diol]
4 | > 1000 nM | > 1000 nM | > 1000 nM |  | COc1ccc(F)c(Cl)c1[C@@H](C)c1c[nH]c2ncc(-c3cn(C)nc3C(F)(F)F)cc12 [Example 29, 3-[(1S)-1-(2-Chloro-3-fluoro-6-methoxyphenyl)ethyl]-5-[1-methyl-3-(trifluoromethyl)-1H-pyrazol-4-yl]-1H-pyrrolo[2,3-b]pyridine]
5 | 200 to 1000 nM | > 1000 nM | > 1000 nM |  | Cc1c(-c2cnc3[nH]cc([C@H](C)c4c(OC[C@H](O)CO)ccc(F)c4Cl)c3c2)cnn1C [Example 127, (2R)-3-(3-Chloro-2-{(1S)-1-[5-(1,5-dimethyl-1H-pyrazol-4-yl)-1H-pyrrolo[2,3-b]pyridin-3-yl]ethyl}-4-fluorophenoxy)propane-1,2-diol]
6 | 200 to 1000 nM |  | > 1000 nM | > 1000 nM | COc1ccc(F)c(Cl)c1[C@@H](C)c1c[nH]c2ncc(-c3cnn(C)c3Cl)cc12 [Example 59, 3-[(1S)-1-(2-Chloro-3-fluoro-6-methoxyphenyl)ethyl]-5-(5-chloro-1-methyl-1H-pyrazol-4-yl)-1H-pyrrolo[2,3-b]pyridine]
7 | 200 to 1000 nM | > 1000 nM | > 1000 nM |  | Cc1c(-c2cnc3[nH]cc([C@H](C)c4c(OC[C@@H](O)CO)ccc(F)c4Cl)c3c2)cnn1C [Example 68, (2S)-3-(3-Chloro-2-{(1S)-1-[5-(1,5-dimethyl-1H-pyrazol-4-yl)-1H-pyrrolo[2,3-b]pyridin-3-yl]ethyl}-4-fluorophenoxy)propane-1,2-diol]
